Experimental data published in patent US8404736B2, “Heterocyclic amide derivatives as EP4 receptor antagonists” (Beta Pharma Canada Inc., priority 2008, dated 2013).

Target: T1, EP4 receptor (Homo sapiens, UniProt P35408)
T1 construct: host or cells: HEK 293(ebna) according to the general protocol; cells used by the contract laboratory not given
Assay: EP4 receptor binding assay (inhibition of [3H]PGE2 binding, MSD Pharma Service)
Conditions: 1 nM [3H] PGE2, Human recombinant Chem-1 cells; for inhibition at 0.01 µM: Tested Concentration 10 nM; for inhibition at 0.002 µM: Tested Concentration 2 nM
Description: Transfected HEK 293(ebna) cells are maintained in culture, harvested and membranes are prepared by differential centrifugation, following lysis of the cells in the presence of protease inhibitors, for use in receptor binding assays. Prostanoid receptor binding assays (for DP1, DP2 (CRTH2), EP1, EP2, EP3-III, EP4, FP, IP, and TP) are performed in 10 mM MES/KOH (pH 6.0) (EPs, FP and TP) or 10 mM HEPES/KOH (pH 7.4) (DPs and IP), containing 1 mM EDTA, 2.5-30 mM divalent cation and the appropriate radioligand. Synthetic compounds are added in dimethylsulfoxide which is kept constant at 1% (v/v) in all incubations. The reaction is initiated by addition of membrane protein. Non-specific binding is determined in the presence of 10 μM of the corresponding non-radioactive prostanoid. Incubations are conducted for 60-90 min at room temperature or 30° C. and terminated by rapid filtration. Specific binding is calculated by subtracting non specific binding from total binding. The residual specific binding at each ligand concentration is calculated and expressed as a function of ligand concentration in order to construct sigmoidal concentration-response curves. The binding affinity of the compounds is determined by calculating the equilibrium inhibition constant (Ki) from the equation Ki=InPt/1[radioligand]/Kd where Kd is the equilibrium dissociation constant for the radioligand:receptor interaction and InPt is the inflection point of the dose-response curves.
EP4 receptor binding assays were performed at MSD Pharma Service in Taiwan under the following assay conditions: […]

T1 sequence (P35408 whole entry): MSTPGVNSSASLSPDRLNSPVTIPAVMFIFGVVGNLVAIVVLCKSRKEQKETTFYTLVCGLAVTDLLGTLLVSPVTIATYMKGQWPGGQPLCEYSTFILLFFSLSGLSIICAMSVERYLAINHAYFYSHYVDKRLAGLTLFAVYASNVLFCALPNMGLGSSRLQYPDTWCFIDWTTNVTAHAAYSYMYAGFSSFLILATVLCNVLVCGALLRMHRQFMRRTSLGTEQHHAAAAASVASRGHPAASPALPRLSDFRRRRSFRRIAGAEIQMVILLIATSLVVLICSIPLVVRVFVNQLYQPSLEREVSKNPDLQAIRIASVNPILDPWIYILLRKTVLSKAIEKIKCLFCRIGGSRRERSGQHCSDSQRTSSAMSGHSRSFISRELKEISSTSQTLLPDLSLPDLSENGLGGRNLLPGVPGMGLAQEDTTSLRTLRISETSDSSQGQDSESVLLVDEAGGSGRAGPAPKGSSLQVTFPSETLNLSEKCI

| inhibition at 0.01 µM | inhibition at 0.002 µM | SMILES |
| --- | --- | --- |
| 83% | – | O=C(O)c1ccc(C2(NC(=O)c3cccc4c3N(Cc3ccc(C(F)(F)F)cc3)C(=O)C4)CC2)cc1 |
| 87% | – | CC(NC(=O)c1csc2ccn(Cc3ccc(C(F)(F)F)cc3)c12)c1ccc(C(=O)O)cc1 (centres unmarked) |
| – | 93% | Cc1sc2ccn(Cc3ccc(C(F)(F)F)cc3)c2c1C(=O)NC1(c2ccc(C(=O)O)cc2)CC1 |
| – | 88% | O=C(O)c1ccc(C2(NC(=O)c3csc4ccn(Cc5ccc(C(F)(F)F)cc5)c34)CC2)cc1 |
| 85% | – | Cc1sc2ccn(Cc3ccc(C(F)(F)F)cc3)c2c1C(=O)NC(C)c1ccc(C(=O)O)cc1 (centres unmarked) |
